# Experimental data published in article PMC8836076, “A Fungal Versatile GH10 Endoxylanase and Its Glycosynthase Variant: Synthesis of Xylooligosaccharides and Glycosides of Bioactive Phenolic Compounds” (International Journal of Molecular Sciences, 2022).
# Biological target: T1, rXynSOS (Talaromyces amestolkiae, UniProt A0A364LCP8, E255G)
# T1 construct: gene BHQ10_009513; mature protein (389 aa, GH10 domain + C-terminal CBM1), 19-aa signal peptide removed, pPIC9 in Pichia pastoris GS115, no tag, starts QLNTAAK (from primer), glycosylated, 53 kDa monomer
# T1 sequence (A0A364LCP8 entry or part of it E255G): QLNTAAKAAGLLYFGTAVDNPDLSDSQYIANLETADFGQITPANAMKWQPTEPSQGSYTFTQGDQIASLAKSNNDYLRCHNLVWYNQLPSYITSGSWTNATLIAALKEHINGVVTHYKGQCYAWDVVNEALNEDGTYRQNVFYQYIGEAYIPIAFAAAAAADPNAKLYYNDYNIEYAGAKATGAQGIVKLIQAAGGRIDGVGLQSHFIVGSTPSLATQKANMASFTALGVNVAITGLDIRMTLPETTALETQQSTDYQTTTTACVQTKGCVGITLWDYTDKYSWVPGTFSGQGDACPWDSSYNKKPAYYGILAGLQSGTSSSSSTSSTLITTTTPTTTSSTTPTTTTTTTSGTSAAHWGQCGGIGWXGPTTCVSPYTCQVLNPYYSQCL
# Test: ESI-MS and NMR of xylooligosaccharide synthesis
# Type: biochemical
# Details: glycosynthase; 20 mM X2F as only reactant (donor and acceptor), 50 mM sodium acetate pH 5, 25 °C, 16 h
compound,measurement,value
"O[C@@H]1[C@@H](O)[C@H](O[C@@H]2CO[C@H](F)[C@H](O)[C@H]2O)OC[C@H]1O [X2F, xylobiose-fluoride]",ESI-MS and NMR of xylooligosaccharide synthesis,reaction with X2F as the only reactant molecule (no acceptor was added)
